Experiment [1] is described as follows: DRUGMATRIX: GABAA, Flunitrazepam, Central radioligand binding (ligand: [3H] Flunitrazepam). The experiment is classed as cell membranes, Rattus norvegicus, Wistar, Brain, Membrane. The settings on record: Not Active = under 50% inhibition at 10 µM.
Experiment [2] addresses T1, Neuropeptide Y receptor type 1 (Homo sapiens, UniProt P25929).
T1 sequence (P25929 whole entry): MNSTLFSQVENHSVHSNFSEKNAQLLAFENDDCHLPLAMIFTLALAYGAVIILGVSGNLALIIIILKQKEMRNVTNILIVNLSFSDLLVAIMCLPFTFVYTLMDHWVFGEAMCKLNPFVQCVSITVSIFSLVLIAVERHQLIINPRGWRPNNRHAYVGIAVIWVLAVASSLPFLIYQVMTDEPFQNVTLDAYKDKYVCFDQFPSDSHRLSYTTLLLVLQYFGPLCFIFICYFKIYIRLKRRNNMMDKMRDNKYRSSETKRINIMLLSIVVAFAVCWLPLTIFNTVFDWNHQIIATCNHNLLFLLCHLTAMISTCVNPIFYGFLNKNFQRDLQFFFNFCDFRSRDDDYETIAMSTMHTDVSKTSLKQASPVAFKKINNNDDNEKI
The class given is cell membranes, Membrane. The settings on record: sk-n-mc.

Experiment [3] concerns the target Kappa-type opioid receptor (Homo sapiens, UniProt P41145). Put plainly: DRUGMATRIX: Opiate kappa (OP2, KOP) radioligand binding (ligand: [3H] Diprenorphine). The class given is cell membranes, HEK293, Membrane. The settings on record: hek293; Not Active = under 50% inhibition at 10 µM.
The target in the next experiment is Mu-type opioid receptor (Homo sapiens, UniProt P35372). The experiment is described as follows: DRUGMATRIX: Opiate mu (OP3, MOP) radioligand binding (ligand: [3H] Diprenorphine). The experiment is classed as cell membranes, CHO-K1, Membrane. The conditions noted are these: cho-k1; Not Active = under 50% inhibition at 10 µM.
Sequence of Mu-type opioid receptor (P35372 whole entry): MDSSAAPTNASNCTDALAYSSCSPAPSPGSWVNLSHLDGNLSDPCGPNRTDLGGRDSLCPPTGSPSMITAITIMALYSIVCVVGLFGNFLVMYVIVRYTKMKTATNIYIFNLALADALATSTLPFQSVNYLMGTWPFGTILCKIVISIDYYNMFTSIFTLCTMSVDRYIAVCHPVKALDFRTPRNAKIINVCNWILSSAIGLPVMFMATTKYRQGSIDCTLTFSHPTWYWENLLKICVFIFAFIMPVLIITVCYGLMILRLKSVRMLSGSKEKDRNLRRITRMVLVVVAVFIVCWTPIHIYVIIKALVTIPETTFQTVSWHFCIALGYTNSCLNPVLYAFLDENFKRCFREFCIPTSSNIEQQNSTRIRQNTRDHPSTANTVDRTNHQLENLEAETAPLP
Experiment [4] has as its target cGMP-specific 3',5'-cyclic phosphodiesterase (Homo sapiens, UniProt O76074). The experiment is described as follows: DRUGMATRIX: Phosphodiesterase PDE5 enzyme inhibition (substrate: [3H]cGMP + cGMP). The class given is tissue-based, Platelet. The settings on record: platelet; Not Active = under 50% inhibition at 10 µM.
The next experiment addresses T2, Neutrophil elastase (Homo sapiens, UniProt P08246).
T2 sequence (P08246 whole entry): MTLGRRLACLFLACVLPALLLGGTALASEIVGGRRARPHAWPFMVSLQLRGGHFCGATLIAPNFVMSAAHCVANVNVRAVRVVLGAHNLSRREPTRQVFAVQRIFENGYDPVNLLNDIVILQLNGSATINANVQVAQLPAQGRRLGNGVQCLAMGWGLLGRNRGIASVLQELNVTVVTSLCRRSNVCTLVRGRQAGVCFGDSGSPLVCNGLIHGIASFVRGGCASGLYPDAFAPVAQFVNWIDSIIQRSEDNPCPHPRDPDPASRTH
The experiment is classed as tissue-based.

In experiment [5] the target is Mitogen-activated protein kinase 3 (Homo sapiens, UniProt P27361). Put plainly: DRUGMATRIX: Protein Serine/Threonine Kinase, ERK1 enzyme inhibition (substrate: Myelin Basic Protein). The arrangement: species or system Escherichia coli. The settings on record: Not Active = under 50% inhibition at 10 µM.
Sequence of Mitogen-activated protein kinase 3 (P27361 whole entry): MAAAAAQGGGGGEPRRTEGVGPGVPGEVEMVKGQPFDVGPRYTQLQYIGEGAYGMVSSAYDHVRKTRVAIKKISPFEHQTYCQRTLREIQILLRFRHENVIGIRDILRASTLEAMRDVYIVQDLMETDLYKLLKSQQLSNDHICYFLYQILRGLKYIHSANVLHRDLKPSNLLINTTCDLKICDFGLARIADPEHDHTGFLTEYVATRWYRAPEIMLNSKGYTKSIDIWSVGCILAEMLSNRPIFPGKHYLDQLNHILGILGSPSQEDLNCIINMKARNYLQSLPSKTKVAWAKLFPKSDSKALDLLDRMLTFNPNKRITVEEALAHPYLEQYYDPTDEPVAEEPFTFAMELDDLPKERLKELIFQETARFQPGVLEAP

This note sets out measurements from ChEMBL document CHEMBL1909046, “DrugMatrix in vitro pharmacology data”.

For orientation: IC50 means the concentration that gives 50% inhibition. The Ki is a measure of affinity in units of concentration, obtained from inhibition or displacement.

Sequence of Kappa-type opioid receptor (P41145 whole entry): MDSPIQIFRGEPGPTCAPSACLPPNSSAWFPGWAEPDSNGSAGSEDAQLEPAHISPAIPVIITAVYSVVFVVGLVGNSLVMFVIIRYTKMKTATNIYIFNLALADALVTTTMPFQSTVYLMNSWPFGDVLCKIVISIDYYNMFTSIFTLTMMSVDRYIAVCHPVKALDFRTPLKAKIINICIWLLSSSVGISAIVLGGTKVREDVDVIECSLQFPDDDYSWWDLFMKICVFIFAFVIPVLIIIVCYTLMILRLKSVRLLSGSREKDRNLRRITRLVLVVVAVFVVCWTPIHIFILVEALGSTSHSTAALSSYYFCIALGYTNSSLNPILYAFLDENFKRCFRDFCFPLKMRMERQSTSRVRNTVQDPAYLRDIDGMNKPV

With `Cl.NC[C@H]1CC[C@H](C(=O)Oc2ccc(CCC(=O)O)cc2)CC1` [CETRAXATE HYDROCHLORIDE], the IC50 entry (in experiment [1]; in experiment [2]; in experiment [3]; on Mu-type opioid receptor; in experiment [4]; against Neutrophil elastase) was “Not Active” throughout. Besides, in experiment [5], the IC50 result was “Not Active”. In experiment [1], the Ki entry is on record as “Not Active”.

As for `CC(=O)[C@]1(O)Cc2c(O)c3c(c(O)c2[C@@H](O[C@H]2C[C@H](N)[C@H](O)[C@H](C)O2)C1)C(=O)c1ccccc1C3=O` [IDARUBICIN], the IC50 result (in experiment [1]; in experiment [2]; in experiment [3]; on Mu-type opioid receptor; in experiment [4]; on Neutrophil elastase) was “Not Active” each time. In experiment [5], the IC50 result was “Not Active”. Also, the Ki result in experiment [1] is given as “Not Active”.

Take `O=C(O)c1ccccc1` [BENZOIC ACID]: the IC50 entry (in experiment [1]; in experiment [2]; in experiment [3]; on Mu-type opioid receptor; in experiment [4]; on Neutrophil elastase) was “Not Active” throughout. Besides, in experiment [5], the IC50 entry is listed as “Not Active”. Also, in experiment [1], the Ki entry is “Not Active”.

As to `C[C@]12CC[C@@H](O)C[C@@H]1CC[C@@H]1[C@@H]2CC[C@]2(C)C(=O)CC[C@@H]12` [ANDROSTERONE], the IC50 entry (in experiment [1]; in experiment [2]; in experiment [3]; on Mu-type opioid receptor; in experiment [4]; against Neutrophil elastase) was “Not Active” in each case. Moreover, in experiment [5], the IC50 entry is “Not Active”. Moreover, in experiment [1], the Ki result was “Not Active”.

In the case of `NCC(CC(=O)O)c1ccc(Cl)cc1` (stereo not given) [BACLOFEN], the IC50 entry (in experiment [1]; in experiment [2]; in experiment [3]; on Mu-type opioid receptor; in experiment [4]; against Neutrophil elastase) was “Not Active” throughout. Besides, the IC50 entry in experiment [5] is reported as “Not Active”. The Ki entry in experiment [1] was “Not Active”.

With `O=C(O)CO` [GLYCOLIC ACID], the IC50 entry (in experiment [1]; in experiment [2]; in experiment [3]; at Mu-type opioid receptor; in experiment [4]; against Neutrophil elastase) was “Not Active” in each case. Further, the IC50 entry in experiment [5] is recorded as “Not Active”. Moreover, the Ki entry in experiment [1] was “Not Active”.

Take `COc1ccccc1OCCNCC(O)COc1cccc2[nH]c3ccccc3c12` (stereo not given) [CARVEDILOL]: the IC50 result (in experiment [1]; in experiment [2]; in experiment [3]; on Mu-type opioid receptor; in experiment [4]; against Neutrophil elastase) was “Not Active” each time. For the same compound, in experiment [5], the IC50 result is “Not Active”. Also, the Ki result in experiment [1] is “Not Active”.

In the case of `O=C(NCCN1CCOCC1)c1ccc(Cl)cc1` [MOCLOBEMIDE], the IC50 entry (in experiment [1]; in experiment [2]; in experiment [3]; at Mu-type opioid receptor; in experiment [4]; at Neutrophil elastase) was “Not Active” in each case. Further, the IC50 result in experiment [5] was “Not Active”. For the same compound, the Ki result in experiment [1] is on record as “Not Active”.

Consider `CC(C)Cc1ccc([C@H](C)C(=O)O)cc1` [DEXIBUPROFEN], for which the 50% inhibitory concentration (IC50) entry (in experiment [1]; in experiment [2]; in experiment [3]; at Mu-type opioid receptor; in experiment [4]; against Neutrophil elastase) was “Not Active” in each case. Further, in experiment [5], the IC50 entry was “Not Active”. Further, in experiment [1], the Ki result is given as “Not Active”.

Regarding `O=c1[nH]cnc2c1ncn2[C@H]1CC[C@@H](CO)O1` [DIDANOSINE], the IC50 result (in experiment [1]; in experiment [2]; in experiment [3]; at Mu-type opioid receptor; in experiment [4]; against Neutrophil elastase) was “Not Active” in each case. Moreover, the IC50 result in experiment [5] is “Not Active”. Also, the Ki entry in experiment [1] is on record as “Not Active”.

For `CC1(COc2ccc(CC3SC(=O)NC3=O)cc2)CCCCC1` (stereo not given) [CIGLITAZONE], the IC50 result (in experiment [1]; in experiment [2]; in experiment [3]; on Mu-type opioid receptor; in experiment [4]; against Neutrophil elastase) was “Not Active” each time. Also, the IC50 result in experiment [5] is “Not Active”. The Ki result in experiment [1] is recorded as “Not Active”.

As to `CC(=O)Nc1ccc2c(c1)Cc1ccccc1-2` [2-ACETYLAMINOFLUORENE], the IC50 entry (in experiment [1]; in experiment [2]; in experiment [3]; on Mu-type opioid receptor; in experiment [4]; against Neutrophil elastase) was “Not Active” each time. Further, in experiment [5], the IC50 result was “Not Active”. For the same compound, the inhibition constant (Ki) result in experiment [1] is recorded as “Not Active”.

In the case of `C[C@H](C(=O)O)c1ccc2oc(-c3ccc(F)cc3)nc2c1` [FLUNOXAPROFEN], the IC50 entry (in experiment [1]; in experiment [2]; in experiment [3]; on Mu-type opioid receptor; in experiment [4]; at Neutrophil elastase) was “Not Active” throughout. Further, the IC50 result in experiment [5] was “Not Active”. Further, the Ki entry in experiment [1] is listed as “Not Active”.

Turning to `CC(C)Cn1cnc2c(N)nc3ccccc3c21` [IMIQUIMOD], the IC50 entry (in experiment [1]; in experiment [2]; in experiment [3]; on Mu-type opioid receptor; in experiment [4]; at Neutrophil elastase) was “Not Active” each time. For the same compound, the IC50 entry in experiment [5] is listed as “Not Active”. For the same compound, the Ki entry in experiment [1] is recorded as “Not Active”.

Turning to `OC[C@H]1OC2C3[C@@H](CO)OC(O[C@H]4[C@H](O)[C@@H](O)[C@@H](O[C@H]5[C@H](O)[C@@H](O)[C@@H](O[C@H]6[C@H](O)[C@@H](O)[C@@H](O[C@H]7[C@H](O)[C@@H](O)[C@@H](O[C@H]8[C@H](O)[C@@H](O)[C@@H](O[C@H]9[C@H](O)[C@@H](O)C(OC1[C@H](O)[C@H]2O)O[C@@H]9CO)O[C@@H]8CO)O[C@@H]7CO)O[C@@H]6CO)O[C@@H]5CO)O[C@@H]4CO)[C@H](O)[C@H]3O`, the IC50 entry (in experiment [1]; in experiment [2]; in experiment [3]; on Mu-type opioid receptor; in experiment [4]; against Neutrophil elastase) was “Not Active” in each case. The IC50 result in experiment [5] is “Not Active”. Further, in experiment [1], the Ki entry is listed as “Not Active”.

As to `CCN1CCN(c2cc3c(cc2F)c(=O)c(C(=O)O)cn3C2CC2)CC1` [ENROFLOXACIN], the IC50 result (in experiment [1]; in experiment [2]; in experiment [3]; on Mu-type opioid receptor; in experiment [4]; on Neutrophil elastase) was “Not Active” throughout. The IC50 entry in experiment [5] is recorded as “Not Active”. The Ki result in experiment [1] is recorded as “Not Active”.

Regarding `C#C[C@]1(O)CC[C@H]2[C@@H]3CCC4=CC(=O)CC[C@@H]4[C@H]3CC[C@@]21C` [NORETHINDRONE], the IC50 in experiment [1] (read-out: IC50) is 13.3 µM; in experiment [2] it was “Not Active”; in experiment [3] it was “Not Active”; at Mu-type opioid receptor it was “Not Active”; in experiment [4], “Not Active”; on Neutrophil elastase it was “Not Active”. Further, the IC50 entry in experiment [5] is reported as “Not Active”. In experiment [1] (read-out: Ki), the Ki is 10.9 µM.

On to `Oc1ncnc2[nH]ncc12` [ALLOPURINOL], for which the IC50 result (in experiment [1]; in experiment [2]; in experiment [3]; on Mu-type opioid receptor; in experiment [4]; against Neutrophil elastase) was “Not Active” in each case. Also, in experiment [5], the IC50 entry is “Not Active”. Moreover, in experiment [1], the Ki entry is “Not Active”.

Turning to `CCC1(c2ccccc2)C(=O)NC(=O)NC1=O` [PHENOBARBITAL], the IC50 entry (in experiment [1]; in experiment [2]; in experiment [3]; on Mu-type opioid receptor; in experiment [4]; at Neutrophil elastase) was “Not Active” each time. For the same compound, in experiment [5], the half-inhibitory concentration (IC50) entry is recorded as “Not Active”. Besides, in experiment [1], the Ki entry is listed as “Not Active”.

Take `CCCCCCNC(=O)n1cc(F)c(=O)[nH]c1=O` [CARMOFUR]: the IC50 entry (in experiment [1]; in experiment [2]; in experiment [3]; on Mu-type opioid receptor; in experiment [4]; against Neutrophil elastase) was “Not Active” in each case. Also, in experiment [5] (read-out: IC50), the IC50 was found to be 6.12 µM. For the same compound, the Ki entry in experiment [1] is listed as “Not Active”.
